Laboratory results published in ChEMBL document CHEMBL1136819, “Synthesis, anticholinesterase activity and structure-activity relationships of m-Aminobenzoic acid derivatives” (Bioorg Med Chem Lett, 2003).

Assays:
[1] = Lethal dose was reported; assay type: ADME
[2] = Partition coefficient (logP); assay type: physicochemical; conditions: octanol/water
[3] = molecular target: T1, Acetylcholinesterase (Torpedo californica, UniProt P04058)
Description: Inhibitory activity against acetylcholinesterase (AChE) from Torpedo californica (Reversible type of inhibition)

[4] = molecular target: T1, Acetylcholinesterase; experiment: Inhibitory activity against acetylcholinesterase (AChE) from Torpedo californica (Irreversible type of inhibition); design: species or system Tetronarce californica

T1 sequence (P04058 whole entry): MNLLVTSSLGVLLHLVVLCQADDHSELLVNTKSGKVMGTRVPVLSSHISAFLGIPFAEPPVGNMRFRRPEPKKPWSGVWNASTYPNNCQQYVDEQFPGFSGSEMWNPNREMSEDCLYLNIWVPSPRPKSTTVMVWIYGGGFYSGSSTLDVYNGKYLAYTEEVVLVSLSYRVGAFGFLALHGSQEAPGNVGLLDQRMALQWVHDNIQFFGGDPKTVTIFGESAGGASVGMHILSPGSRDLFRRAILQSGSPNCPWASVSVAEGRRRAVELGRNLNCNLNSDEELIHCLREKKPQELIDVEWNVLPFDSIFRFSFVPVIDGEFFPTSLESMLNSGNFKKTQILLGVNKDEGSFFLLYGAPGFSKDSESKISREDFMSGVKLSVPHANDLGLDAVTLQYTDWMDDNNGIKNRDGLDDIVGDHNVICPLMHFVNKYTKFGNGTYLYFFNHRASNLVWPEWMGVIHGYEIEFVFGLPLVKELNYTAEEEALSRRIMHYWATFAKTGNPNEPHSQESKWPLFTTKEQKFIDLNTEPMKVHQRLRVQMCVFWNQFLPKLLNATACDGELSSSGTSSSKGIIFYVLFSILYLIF

## O=C(O)CCC(=O)Nc1cccc(C(=O)O)c1
[1]
  LD50: > 1000 mg/kg
[2]
  logP: 1.41
[3]
  IC50: 0.0925 µM

## O=C(O)/C=C\C(=O)Nc1cccc(C(=O)O)c1
[1]
  LD50: > 1000 mg/kg
[4]
  IC50: 0.357 µM
[2]
  logP: 1.09

## O=C(O)c1cccc(N2C(=O)CCC2=O)c1
[1]
  LD50: > 1000 mg/kg
[2]
  logP: 1.81
[3]
  IC50: 0.0334 µM

## O=C(O)c1cccc(N2C(=O)C=CC2=O)c1
[4]
  IC50: 0.256 µM
[2]
  logP: 1.48
